pKi: −log10 of the molar value.
Columns and labels:
[1] = molecular target: Translocator protein (Homo sapiens) (UniProt P30536); test: Binding affinity to TSPO in parietal lobe of healthy human; assay type: tissue-based; settings: tested as the 125I-labelled form
[2] = molecular target: Translocator protein (Homo sapiens) (UniProt P30536); test: Binding affinity to TSPO in white matter of healthy human; assay type: tissue-based; settings: tested as the 125I-labelled form
[3] = molecular target: Translocator protein (Homo sapiens) (UniProt P30536); test: Binding affinity to TSPO in temporal lobe of healthy human; assay type: tissue-based; settings: tested as the 125I-labelled form
[4] = molecular target: Translocator protein (Homo sapiens) (UniProt P30536); test: Binding affinity to TSPO in parietal lobe of patient with Alzheimer's disease; settings: tested as the 125I-labelled form
[5] = molecular target: Translocator protein (Homo sapiens) (UniProt P30536); test: Binding affinity to TSPO in white matter of patient with Alzheimer's disease; assay type: tissue-based; settings: tested as the 125I-labelled form
[6] = molecular target: Translocator protein (Homo sapiens) (UniProt P30536); test: Binding affinity to TSPO in temporal lobe of patient with Alzheimer's disease; settings: tested as the 125I-labelled form
Translocator protein = Translocator protein (Rattus norvegicus, UniProt P16257); test: Displacement of [3H]PK11195 from TSPO in rat cortex
[7] = molecular target: Translocator protein (Homo sapiens) (UniProt P30536); test: Displacement of [3H]Ro5-4864 from TSPO
Rattus norvegicus [8] = species: Rattus norvegicus; test: Displacement of [3H]Ro5-4864 from GABAA receptor in rat brain membrane; assay type: cell membranes
[9] = molecular target: Translocator protein (Mus musculus) (UniProt P50637); test: Binding affinity to mitochondrial TSPO in mouse MA10 cells in presence of human chorionic gonadotropin; assay type: cell-based
U-937 [10] = test: Antiapoptotic activity against TNF-alpha-induced apoptosis in human U937 cells; assay type: functional
U-937 [11] = test: Induction of apoptosis in human U937 cells; assay type: functional
[12] = molecular target: Translocator protein (Homo sapiens) (UniProt P30536); test: Displacement of [3H]Ro5-4864 from TSPO in caudate nucleus of patient with Huntington's disease; settings: tested as the 3H-labelled form
[13] = molecular target: Translocator protein (Homo sapiens) (UniProt P30536); test: Displacement of [3H]Ro5-4864 from TSPO in putamen of healthy human; settings: tested as the 3H-labelled form
Rattus norvegicus [14] = species: Rattus norvegicus; test: Displacement of [3H]diazepam from central benzodiazepine receptor in Wistar rat […] by scintillation counting

Chain of Translocator protein (Homo sapiens) (P30536 whole entry): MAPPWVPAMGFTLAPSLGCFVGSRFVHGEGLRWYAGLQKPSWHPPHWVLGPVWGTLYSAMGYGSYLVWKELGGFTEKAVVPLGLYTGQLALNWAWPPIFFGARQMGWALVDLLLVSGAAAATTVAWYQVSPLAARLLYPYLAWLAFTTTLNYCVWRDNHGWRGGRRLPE
Chain of Translocator protein (P16257 whole entry, looked up): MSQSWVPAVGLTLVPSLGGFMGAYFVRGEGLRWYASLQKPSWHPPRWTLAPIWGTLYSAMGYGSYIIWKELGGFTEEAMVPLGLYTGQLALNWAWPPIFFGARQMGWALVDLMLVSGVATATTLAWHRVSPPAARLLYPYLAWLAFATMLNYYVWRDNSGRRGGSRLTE
Chain of Translocator protein (Mus musculus) (P50637 whole entry, looked up): as the sequence (P16257 whole entry, looked up) above, with S2P, Q3E, I67V, E77D, V110A, M113L, M149V, T168P counted along it

With COc1ccc(OC)c(CN(C(C)=O)c2cc(I)ccc2Oc2ccccc2)c1 the Bmax [1] was 0.32 fmol/mg, the Bmax [2] was 0.24 fmol/mg and the Bmax [3] was 0.22 fmol/mg. The Bmax [4] was 1.26 fmol/mg, the Bmax [5] was 1.12 fmol/mg and the Bmax [6] was 1.02 fmol/mg.
Work on CC(=O)N(Cc1ccccc1OC(C)C)c1ccc(Cl)cc1Oc1ccccc1 yielded a pKi (Translocator protein) of 9.04.
In the case of CCCCCCN(CCCCCC)C(=O)Cc1c(-c2ccc(F)cc2)[nH]c2ccccc12, the pKi (Translocator protein) was 8.30.
For CN1C(=O)CN=C(c2ccc(Cl)cc2)c2cc(Cl)ccc21 [RO-54864], the Activity [7] was 7.3 nM, the Activity (Rattus norvegicus [8]) was 163 µM and the Activity [9] was 0.2 nM. The Activity (U-937 [10]) was 10 µM, the Activity (U-937 [11]) was >10 µM and the Bmax [12] was 61.7 fmol/mg. It also gave a Bmax [13] of 40.7 fmol/mg.
Compound CN1C(=O)CN=C(c2ccccc2)c2cc(Cl)ccc21 has an Activity (Rattus norvegicus [14]) of 40 nM.
